Test results: patent publication US7060822B1, “2-pyrazolin-5-ones” (Abbott GmbH & Co. KG, priority 1999, dated 2006)

Row | SMILES | melting point
1 | CCOC1=NNC(=O)C1=Cc1[nH]c2ccccc2c1CN(C)C [Example 332, 4-[(3-Dimethylaminomethylindol-2-yl)methylene]-3-ethoxy-2-pyrazolin-5-one] | 185 to 187 °C
2 | O=C1NN=C(Cc2ccccc2)C1=Cc1cn(CCCCO)c2ncccc12 [Example 334, 3-Benzyl-4-{[1-(4-hydroxybutyl)-7-azaindol-3-yl]methylene}-2-pyrazolin-5-one] | 176 to 179 °C
3 | O=C1NN=C(CCc2ccc(O)cc2)C1=Cc1cn(CCCCO)c2ncccc12 [Example 342, 4-{[1-(4-Hydroxybutyl)-7-azaindol-3-yl]methylene}-3-(4-hydroxyphenylethyl)-2-pyrazolin-5-one] | 211 to 212 °C
4 | O=C1NN=C(C2CC2)C1=Cc1c[nH]c2ncccc12 [Example 344, 4-[(7-Azaindol-3-yl)methylene]-3-cyclopropyl-2-pyrazolin-5-one] | 245 to 246 °C
5 | O=C1NN=C(C2CCC2)C1=Cc1c[nH]c2ncccc12 [Example 345, 4-[(7-Azaindol-3-yl)methylene]-3-cyclobutyl-2-pyrazolin-5-one] | 300 to 302 °C
6 | CN(C)c1ccc(C=C2C(=O)NN=C2Cc2ccccc2)cc1 [Example 358, 3-Benzyl-4-[(4-dimethylaminophenyl)methylene]-2-pyrazolin-5-one] | 253 to 255 °C
7 | CC(C)OC1=NNC(=O)C1=Cc1ccc(N(C)C)cc1 [Example 359, 4-[(4-Dimethylaminophenyl)methylene]-3-isopropoxy-2-pyrazolin-5-one] | 197 to 198 °C
8 | CN(C)c1ccc(C=C2C(=O)NN=C2CCc2ccccc2)cc1 [Example 360, 4-[(4-Dimethylaminophenyl)methylene]-3-phenylethyl-2-pyrazolin-5-one] | 224 to 225 °C
9 | CN(C)c1ccc(C=C2C(=O)NN=C2C2CC2)cc1 [Example 361, 3-Cyclopropyl-4-[(4-dimethylaminophenyl)methylene]-2-pyrazolin-5-one] | 280 to 289 °C
10 | Cc1n[nH]cc1C=C1C(=O)NN=C1OC(C)C [Example 362, 3-Isopropoxy-4-[(3-methylpyrazol-4-yl)methylene]-2-pyrazolin-5-one] | 228 to 230 °C
11 | Cc1n[nH]cc1C=C1C(=O)NN=C1C1CC1 [Example 363, 3-Cyclopropyl-4-[(3-methylpyrazol-4-yl)methylene]-2-pyrazolin-5-one] | 265 to 267 °C
12 | CC(C)OC1=NNC(=O)C1=Cc1ncc[nH]1 [Example 364, 4-[(Imidazol-2-yl)methylene]-3-isopropoxy-2-pyrazolin-5-one] | 212 to 214 °C
13 | O=C1NN=C(C2CC2)C1=Cc1ncc[nH]1 [Example 365, 3-Cyclopropyl-4-[(imidazol-2-yl)methylene]-2-pyrazolin-5-one] | 264 to 266 °C
14 | CC(C)OC1=NNC(=O)C1=Cc1c[nH]cn1 [Example 366, 4-[(Imidazol-4-yl)methylene]-3-isopropoxy-2-pyrazolin-5-one] | 259 to 260 °C
15 | O=C1NN=C(C2CC2)C1=Cc1cccs1 [Example 367, 3-Cyclopropyl-4-[(thien-2-yl)methylene]-2-pyrazolin-5-one] | 275 to 277 °C
16 | CC(C)C1=NN(C)C(=O)C1=Cc1c[nH]c2ccccc12 [Example 368, 4[(Indol-3-yl)methylene]-3-isopropyl-1-methyl-2-pyrazolin-5-one] | 241 to 242 °C
17 | CC(C)OC1=NNC(=O)C1=Cc1cc[nH]c1 [Example 369, 3-Isopropoxy-4-[(pyrrol-3-yl)methylene]-2-pyrazolin-5-one] | 252 to 255 °C
18 | CC(C)OC1=NNC(=O)C1=Cc1ccc(O)c2ncccc12 [Example 370, 4-[(8-Hydroxyquinolin-5-yl)methylene]-3-isopropoxy-2-pyrazolin-5-one] | > 300 °C

More lines, now with the values ahead:

Row | melting point | SMILES
19 | 274 to 277 °C | O=C1NN=C(Cc2ccccc2)C1=Cc1c[nH]c2ncccc12 [Example 333, 4-[(7-Azaindol-3-yl)methylene]-3-benzyl-2-pyrazolin-5-one]
20 | 300 to 302 °C | COc1ccc(OCC2=NNC(=O)C2=Cc2c[nH]c3ncccc23)cc1 [Example 335, 4-[(7-Azaindol-3-yl)methylene]-3-(4-methoxyphenyloxymethyl)-2-pyrazolin-5-one]
21 | 258 to 260 °C | CC(C)OC1=NNC(=O)C1=Cc1c[nH]c2ncccc12 [Example 336, 4-[(7-Azaindol-3-yl)methylene]-3-isopropoxy-2-pyrazolin-5-one]
22 | > 300 °C | NC1=NNC(=O)C1=Cc1c[nH]c2ncccc12 [Example 337, 3-Amino-4-[(7-azaindol-3-yl)methylene]-2-pyrazolin-5-one]
23 | 273 to 276 °C | COc1ccc(CC2=NNC(=O)C2=Cc2c[nH]c3ncccc23)cc1 [Example 338, 4-[(7-Azaindol-3-yl)methylene]-3-(4-methoxybenzyl)-2-pyrazolin-5-one]
24 | 249 to 252 °C | O=C1NN=C(Nc2ccccc2)C1=Cc1c[nH]c2ncccc12 [Example 339, 4-[(7-Azaindol-3-yl)methylene]-3-phenylamino-2-pyrazolin-5-one]
25 | > 300 °C | Cc1ccc(CC2=NNC(=O)C2=Cc2c[nH]c3ncccc23)cc1 [Example 340, 4-[(7-Azaindol-3-yl)methylene]-3-(4-methylbenzyl)-2-pyrazolin-5-one]
26 | 270 to 272 °C | O=C1NN=C(CCc2ccc(O)cc2)C1=Cc1c[nH]c2ncccc12 [Example 341, 4-[(7-Azaindol-3-yl)methylene]-3-(4-hydroxyphenylethyl)-2-pyrazolin-5-one]
27 | 300 °C (dec.) | CC(C)C1=NNC(=O)C1=Cc1c[nH]c2ncccc12 [Example 343, 4-[(7-Azaindol-3-yl)methylene]-3-isopropyl-2-pyrazolin-5-one]
28 | 280 to 282 °C | O=C1NN=C(c2ccccc2)C1=Cc1c[nH]c2ncccc12 [Example 347, 4-[(7-Azaindol-3-yl)methylene]-3-phenyl-2-pyrazolin-5-one]
29 | 317 to 319 °C | O=C1NN=C(CCc2ccccc2)C1=Cc1c[nH]c2ncccc12 [Example 357, 4-[(7-Azaindol-3-yl)methylene]-3-phenylethyl-2-pyrazolin-5-one]
